Results: PMC12134986, “Synthesis, characterization and antidiabetic studies of novel amantadine-derived Schiff base (AHB) and its Zn(II), Co(II), Cr(III) and VO(IV) complexes” (RSC Advances, 2025)

How the values were obtained:
α-amylase = assay: In vitro α-amylase inhibition activity (starch-iodine, 580 nm); type: biochemical
Method: In vitro α-amylase inhibition studies were performed following a reported methodology with slight modification.[20] First, to prepare our reaction mixture, 10 μL of enzyme solution (0.1 mg mL^−1) was combined with a 10 mM phosphate buffer at pH 6.9 (6 mM NaCl), and then mixed with the various concentrations of the tested sample. The resultant reaction mixtures placed in a microplate were incubated for 30 minutes at 37 °C. After the incubation period, 40 μL of starch solution (1%) was added; subsequently, this assay plate was incubated at 37 °C for 10 minutes. Finally, the reaction was terminated by adding 20 μL of 1.0 M HCl to the prepared solution, followed by the addition of 75 μL of iodine solution. Quantification was performed spectrophotometrically at 580 nm. […] Inhibition activity (%) was measured using eqn (1).1 [drawing 1] Here, the control sample excluded the α-amylase and the tested sample. The inhibitor concentration used to inhibit α-amylase activity (50%) under assay was determined as IC50 values. The findings were depicted as means ± SD values, obtained from microplate readers.

α-glucosidase = assay: In vitro α-glucosidase inhibitory activity (pNPG substrate, absorbance at 405 nm); type: biochemical
Method: After the pre-incubation, pNPG (substrate, 30 μL, 5 mM) prepared in 0.1 M phosphate buffer (pH 6.8) was poured into the wells of the microplate, which were then incubated at 37 °C for 20 minutes. […] For inhibition studies, various concentrations of test samples were utilized. […] All data were presented as means ± SD values, obtained from a microplate reader for all experiments.

## (E)-2-((adamantan-2-ylimino)methyl)-6-bromo-4-chlorophenol [AHB]
α-amylase
  α-amylase inhibition, result in words: relatively inactive
α-glucosidase
  α-glucosidase inhibition, result in words: relatively inactive
